The values that follow come from PMC9412534, “Diindolylmethane Derivatives: New Selective Blockers for T-Type Calcium Channels” (Membranes, 2022).

For one test, the target named is T1, CaV2.2 (Homo sapiens, UniProt Q00975).
T1 construct: endogenous in cells; host or cells: SH-SY5Y human neuroblastoma cells
As to the kind of experiment: HVA N-type calcium channel FLIPR assay in SH-SY5Y cells. The class given is cell-based. The conditions noted are these: 10 µM nifedipine present, n = 3, read-out: IC50 CaV2.2 (HVA CaVs). The procedure: (§1) The human embryonic kidney 293 (HEK 293) cell lines (from Emmanuel Bourinet, Montpellier, France) stably expressing CaV3.2 or CaV3.3 were cultured under 5% carbon dioxide at 37 °C in Dulbecco’s Modified Eagle Medium (DMEM) Glutamax (Gibco, Life Technologies, Carlsbad, CA, USA) supplemented with 10% (v/v) fetal bovine serum (FBS), 100 U/mL penicillin, 100 μg/mL streptomycin (Gibco, Life Technologies, Carlsbad, CA, USA), and 750 μg/mL geneticin (G418) (Gibco, Life Technologies). The Chinese Hamster Ovary (CHO) cell lines (Emmanuel Bourinet, Montpellier, France) expressing CaV3.1 were cultured under 5% carbon dioxide at 37 °C in Alpha Minimum Essential Media (MEM) Glutamax (Gibco, Life Technologies), supplemented with 10% (v/v) fetal bovine serum (FBS) and 300 μg/mL geneticin (G418) (Gibco, Life Technologies). The human neuroblastoma SH-SY5Y cells (Victor Diaz, Goettingen, Germany) were cultured under 5% carbon dioxide at 37 °C in RPMI 1640 antibiotic-free medium (Invitrogen, Carlsbad, CA, USA), supplemented with 15% FBS and 2 mM GlutaMAX™ (Invitrogen). D-PBS (Gibco, Life Technologies) was used to wash the cells, and 0.25% Trypsin-EDTA (Gibco, Life Technologies) was used to detach cells from the flask surface. They were split in a ratio of 1:5 (ideally 1000 cells/cm^2) when they reached 70–80% confluence (every 2–3 days). Transiently transfected CaV3.1 HEK293 T cells were used in FLIPR Assays. HEK 293 T cells were cultured under 5% carbon dioxide at 37 °C in DMEM supplemented with 10% (v/v) FBS. D-PBS was used to wash the cells, and 0.25% Trypsin-EDTA was used to detach cells from the flask surface. The cells were split and seeded at 6 million cells per T175 flask, to reach 70–80% confluence after 24 h. The next day, 12 μg DNA of human CaV3.1 was incubated in 900 μL serum-free DMEM with 36 μL FuGENE HD transfection reagent (Promega Corporation, Madison, WI, USA) (1:3 DNA/Fugene ratio) for 20 min, and then the mixture was added into the cell flask slowly, drop by drop. After the transfection, the cells were cultured under 5% carbon dioxide at 37 °C for 24 h and then moved to a 28 °C incubator.
SH-SY5Y cells were seeded into 384-well black wall clear bottom plates at a density of 15,000 cells per well, resulting in 90–95% confluence after 24 h. The media were then removed from the wells and replaced with 20 μL of 10% calcium 4 dye (Molecular Devices) in physiological salt solution (PSS) (containing 5.9 mM KCl, 1.4 mM MgCl2, 10 mM HEPES, 1.2 mM NaH2 PO4, 5 mM NaHCO3, 140 mM NaCl, 11.5 mM glucose, and 1.8 mM CaCl2, pH 7.4) with 0.1% BSA. As reported, for N-type calcium channel FLIPR assays the cells were pre-incubated with 10 µM nifedipine added in the dye to ensure full inhibition of L-type calcium responses. For L-type calcium channel FLIPR assays, the cells were pre-incubated with 1 µM CVID added in the dye to ensure full inhibition of N-type calcium responses. Positive control on the first reagent plate contained 15 μL of PSS (0.1% BSA), whereas PSS (0.1% BSA) containing 1 µM CVID and 10 µM nifedipine (final concentration) was used as a negative control. The fluorescence readings were recorded and converted as described previously, and agonist containing 90 mM KCl + 5 mM CaCl2 was used in the second addition.

The target in test [1] is T2, recombinant hCaV3.1 channels (Homo sapiens, UniProt O43497).
T2 construct: host or cells: probably the CHO cell line expressing CaV3.1 (inferred: transient HEK293T cells are assigned to FLIPR only)
The test can be described thus: Whole-cell patch-clamp (QPatch), CaV3.1. The class given is cell-based. The following applies: for IC50: whole-cell current, holding potential −90 mV, n = 3–5. The procedure:
as §1
Whole-cell patch-clamp experiments were performed on an automated electrophysiology platform QPatch 16 X (Sophion Bioscience A/S, Ballerup, Denmark) in single-hole configuration using 16-channel planar patch chip QPlates (Sophion Bioscience A/S). The extracellular recording solution contained, in mM: TEACl 157, MgCl2 0.5, CaCl2 5, and HEPES 10; pH 7.4 adjusted with TEAOH; and osmolarity 320 mOsm. The intracellular pipette solution contained, in mM: CsF 140, EGTA 1, HEPES 10, and NaCl 10; pH 7.2 adjusted with CsOH; and osmolarity 325 mOsm. Compounds were diluted in extracellular recording solution with 0.1% BSA at the concentrations stated (DMSO ≤ 0.1%), and the effects of compounds were compared to the control (extracellular solution with 0.1% BSA) parameters within the same cell. Compounds’ incubation time varied from two (for the highest concentration) to five (for the lowest concentration) minutes by applying the voltage protocol 10–30 times at 10 s intervals to ensure steady-state inhibition was achieved. The effects of compounds were obtained using 200 ms voltage steps to peak potential from a holding potential of −90 mV. Current–voltage (I–V) relationships were obtained by holding the cells at a potential of −100 mV before applying 50 ms pulses to potentials from −75 to +50 mV every 5 s in 5 mV increments. […]
(In general: In patch-clamp work, channel activity is measured electrically.)

T2 sequence (O43497 whole entry): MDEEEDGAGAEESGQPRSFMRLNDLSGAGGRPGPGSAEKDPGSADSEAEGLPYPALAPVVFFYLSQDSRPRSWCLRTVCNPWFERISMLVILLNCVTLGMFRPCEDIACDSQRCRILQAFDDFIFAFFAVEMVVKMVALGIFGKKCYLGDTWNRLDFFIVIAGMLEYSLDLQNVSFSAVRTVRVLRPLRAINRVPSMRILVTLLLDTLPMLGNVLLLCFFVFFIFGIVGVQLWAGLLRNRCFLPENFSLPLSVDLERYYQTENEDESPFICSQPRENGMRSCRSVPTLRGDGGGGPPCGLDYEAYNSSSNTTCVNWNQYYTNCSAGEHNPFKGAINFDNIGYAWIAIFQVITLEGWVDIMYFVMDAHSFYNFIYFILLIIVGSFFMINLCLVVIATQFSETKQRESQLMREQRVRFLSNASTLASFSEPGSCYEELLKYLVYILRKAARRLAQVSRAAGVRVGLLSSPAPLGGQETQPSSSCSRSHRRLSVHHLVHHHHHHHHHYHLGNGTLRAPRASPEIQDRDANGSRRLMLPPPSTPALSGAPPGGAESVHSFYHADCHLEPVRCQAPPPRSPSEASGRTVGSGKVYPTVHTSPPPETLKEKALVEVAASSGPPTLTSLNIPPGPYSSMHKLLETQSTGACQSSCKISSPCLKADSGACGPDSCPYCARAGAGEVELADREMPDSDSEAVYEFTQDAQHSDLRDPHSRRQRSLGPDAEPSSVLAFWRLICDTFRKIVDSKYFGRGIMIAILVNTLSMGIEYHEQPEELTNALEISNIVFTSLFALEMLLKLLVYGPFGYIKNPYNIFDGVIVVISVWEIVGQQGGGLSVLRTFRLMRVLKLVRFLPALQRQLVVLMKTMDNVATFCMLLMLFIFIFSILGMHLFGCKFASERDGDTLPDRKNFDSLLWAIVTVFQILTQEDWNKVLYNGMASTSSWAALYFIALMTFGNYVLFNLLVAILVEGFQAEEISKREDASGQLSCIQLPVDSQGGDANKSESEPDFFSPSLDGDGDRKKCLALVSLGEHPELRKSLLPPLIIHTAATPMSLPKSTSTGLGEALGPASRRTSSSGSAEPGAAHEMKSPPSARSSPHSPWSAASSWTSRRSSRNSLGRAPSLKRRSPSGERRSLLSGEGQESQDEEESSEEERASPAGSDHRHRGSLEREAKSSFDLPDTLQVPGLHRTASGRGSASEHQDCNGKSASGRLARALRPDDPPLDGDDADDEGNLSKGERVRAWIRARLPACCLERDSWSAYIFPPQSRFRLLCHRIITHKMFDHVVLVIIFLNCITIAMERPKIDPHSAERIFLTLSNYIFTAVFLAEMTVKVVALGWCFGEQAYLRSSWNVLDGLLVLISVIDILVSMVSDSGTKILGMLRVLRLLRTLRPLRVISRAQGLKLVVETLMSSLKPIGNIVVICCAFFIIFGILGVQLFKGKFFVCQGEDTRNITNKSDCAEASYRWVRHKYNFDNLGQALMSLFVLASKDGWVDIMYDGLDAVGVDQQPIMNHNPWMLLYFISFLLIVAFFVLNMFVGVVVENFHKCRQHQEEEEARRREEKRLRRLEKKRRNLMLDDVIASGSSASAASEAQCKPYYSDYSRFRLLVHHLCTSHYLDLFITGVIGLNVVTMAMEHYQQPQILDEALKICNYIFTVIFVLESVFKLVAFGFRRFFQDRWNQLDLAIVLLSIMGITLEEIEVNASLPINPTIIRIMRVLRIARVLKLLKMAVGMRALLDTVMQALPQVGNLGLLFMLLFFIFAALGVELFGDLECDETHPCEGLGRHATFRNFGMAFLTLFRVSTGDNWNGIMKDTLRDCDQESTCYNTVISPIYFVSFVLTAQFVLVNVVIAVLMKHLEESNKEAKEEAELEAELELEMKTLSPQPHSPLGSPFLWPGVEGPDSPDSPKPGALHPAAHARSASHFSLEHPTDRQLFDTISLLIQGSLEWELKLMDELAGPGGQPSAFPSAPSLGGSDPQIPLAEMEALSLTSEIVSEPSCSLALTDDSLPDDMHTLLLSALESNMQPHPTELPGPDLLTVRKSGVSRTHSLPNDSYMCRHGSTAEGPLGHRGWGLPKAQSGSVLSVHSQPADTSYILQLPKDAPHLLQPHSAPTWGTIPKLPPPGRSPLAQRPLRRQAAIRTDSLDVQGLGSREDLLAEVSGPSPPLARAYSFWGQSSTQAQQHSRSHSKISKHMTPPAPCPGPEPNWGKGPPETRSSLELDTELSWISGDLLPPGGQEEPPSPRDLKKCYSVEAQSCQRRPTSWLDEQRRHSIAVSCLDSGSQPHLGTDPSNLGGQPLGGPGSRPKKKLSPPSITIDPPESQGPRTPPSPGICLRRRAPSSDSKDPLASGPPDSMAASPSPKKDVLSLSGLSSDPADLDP

Turning to `c1ccc2c(Cc3c[nH]c4ccccc34)c[nH]c2c1` [DIM, 3,3′-diindolylmethane, reference compound], the values for the IC50 (on CaV2.2; in test [1]) were 56.7 ± 2.61 µM and 8.32 ± 1.53 µM, respectively. In test [1] (QPatch, 49 nM–3.1 µM), the “effect of low concentrations on CaV3.1 channel current” value is given as “weakly enhanced”. For the same compound, in test [1] (QPatch, 2.5 µM and 15 µM), the “shift in the I–V relationship of CaV3.1” value was “not accompanied by shifts”.

For the compound `O=C(c1c[nH]c2ccccc12)c1c[nH]c2ccccc12` [DIM-one, 3,3′-diindolylmethanone], the IC50 at CaV2.2 came to 119 ± 6.51 µM; in test [1], 1.53 µM.

As to `O=C(c1c[nH]c2cc(Br)ccc12)c1c[nH]c2cc(Br)ccc12` [IV], the IC50 on CaV2.2 was greater than 200 µM.

`O=C(c1cn(Cc2ccccc2)c2ccccc12)c1cn(Cc2ccccc2)c2ccccc12` [IX, bis(1-benzyl-1H-indol-3-yl)methanone]: the IC50 worked out at 82 ± 5.3 µM at CaV2.2 and 47.4 ± 11.7 µM in test [1].

A word on the IC50: it is the point on the concentration scale where inhibition reaches its midpoint.
